Legend:
[1] = tested on: LOX human melanoma xenografts; assay: Immunohistochemistry of LOX xenografts after single dosing; type: in vivo, mice; details: single 40 mg/kg i.v.
Experimental: LOX human melanoma cells, which carry the V600E BRAF mutation, were originally obtained from the DCTD Tumor Repository (Frederick, Md.). The cells were grown in monolayer cultures in DCTD-recommended growth media at 37° C. in a 5% CO2 humidified incubator. On the day of subcutaneous (s.c.) injections of the cells, growth medium was removed, flasks were washed with PBS, and cells were collected with trypsinization. The cells were washed and collected by centrifugation, and then resuspended in ice-cold PBS at a concentration of 1×10^7 cells/mL. The cells (1×10^6 cells) were inoculated s.c. in female athymic NU/NU mice near the right axillary area using a 27-gauge needle with a volume of 0.1 mL, and allowed to grow. Compound 106 was administered intravenously (i.v.) on a single dosing at the dosage level of 40 mg/kg with a volume of injection 0.1 mL per 10 g body weight. Then, the mice were euthanized at different time points including 0, 1, 2, 4, 8, 12, 24, 48, 72 h after dosing. The tumor tissue was dissected and fixed with 10% formalin for immunohistochemistry.
For immunohistochemical detection of phospho-ERK 1/2, rabbit mAb 20011 was used at a final concentration of […] (Cell Signaling, Cat. No. 4376). This mAb detects endogenous levels of p44 and p42 MAP Kinase (ERK1 and ERK2) when dually phosphorylated at Thr202 and Tyr204 of ERK1 (Thr185 and […] of ERK2), and singly phosphorylated at Thr202. Conditions were essentially as described in IHC Procedure (2), with incubation overnight (18 hr) at 4° C. and EDTA retrieval buffer. Secondary reagent was goat anti-rabbit antibody, conjugated to alkaline phosphatase.
For immunohistochemical detection of phospho-RB, anti-phospho-Retinoblastoma (pSer780) antibody (Sigma, Cat. No. R6275) was used (Table 10). Conditions were as described in IHC Procedure (1), with incubation for one hour at room temperature and EDTA retrieval buffer. Secondary reagent was anti-rabbit antibody, conjugated to horseradish peroxidase.

SF-295 = assay: CellTiter-Glo cell growth assay; type: cell-based, human; details: SF-295, BRAF wild-type glioblastoma, elevated pAKT; 10 μmol/L to 0.0003 μmol/L
Experimental: (§1) In order to determine whether Compound 106 resistance is associated with constitutive AKT phosphorylation as a result of activation of the PI3K signaling pathway, a panel of 10 BRAF mutated melanoma cell lines and a BRAF wild-type glioblastoma cancer cell line, SF-295, were tested using different concentrations of Compound 106 ranging from 10 μmol/L to 0.0003 μmol/L.
(§2) All assays were performed in a 96 well format. For these cell lines, protein lysates were collected in a separate experiment, which allowed for the evaluation of the constitutive level of AKT phosphorylation and correlation between the level of phosphorylated AKT (pAKT) and Compound 106 sensitivity. Cell growth was assessed using CellTiter-Glo® Luminescent Cell Viability Assay (Promega). Phosphorylated AKT protein was analyzed by Western blotting, with total AKT being used as a loading control.

RPMI-7951 = assay: CellTiter-Glo cell growth assay; type: cell-based; details: RPMI-7951, BRAF mutated melanoma, elevated pAKT; 10 μmol/L to 0.0003 μmol/L
Experimental: as §1, §2

CCNc1cc(O)c2c(c1)/C=C/C[C@H](O)[C@H](O)C(=O)/C=C\[C@@H](C)[C@H](C)OC2=O [Compound 106]
Time for phospho-ERK staining to recover to baseline levels [1]: ≤ 24 h
Phospho-ERK staining (IHC) ([1]; 8 hour time-point): essentially no observable staining
Ki67 staining (IHC) ([1]; between 24 and 48 hours, through 72 hours): suppressed to below detection
phospho-pRB level (IHC) ([1]; between 48 and 72 hours): suppressed to below detection
Sensitivity of cell line (SF-295): resistant
Sensitivity of cell line (RPMI-7951): resistant

From patent US20160291027A1, “METHODS FOR […] ABILITY OF A Z[…] COMPOUND TO TREAT CANCER” (Eisai R&D Management Co., Ltd., priority 2007, published 2016)
